# Assays:
# [1] = test system: P. falciparum K1 (CQ-resistant); test: HRP2-based ELISA growth inhibition, K1 strain; type: cell-based; conditions: Plasmodium falciparum, unmarked values: HRP II ELISA, 72 h
# Description: (§1) Highly sensitive HRP2-based ELISA and [^3H]-hypoxanthine incorporation assay were used as markers for inhibition of parasite growth as previously described (12, 14). A solvent control and a chloroquine (CQ) control were included in the HRP2-based ELISA. CQ, lumefantrine and artesunate were included as controls in the [^3H]-hypoxanthine assay series.
# (§2) The assay protocol of the HRP2-based ELISA is described in more detail in the following paragraphs.
# (§3) The P. falciparum clones were maintained in continuous culture as described previously (10). Briefly, 3D7 (CQ-sensitive), NF54, and K1 (CQ-resistant) P. falciparum clones were obtained from MR4/American Type Culture Collection, Manassas, Va., USA under the accession numbers MR4-102 (3D7), MRA-1000 (NF54), and MR4-159 (K1). P. falciparum cultures were maintained in 25 cm^2 flasks. Parasites were cultured in RPMI 1640 (Sigma Aldrich, Austria) medium containing 10% human serum at a hematocrit of 5% (blood group 0 negative) at 37° C. under an atmosphere of 5% CO2, 5% O2 and 90% N2. The medium was changed every 24 to 48 hours. The culture was diluted and fresh erythrocytes were added whenever the parasite density reached >1%.
# (§4) Stock solutions of compounds of formula I were prepared in DMSO (10 mg/mL). Stock concentrations of chloroquine and lumefantrine always remained 1 mg/mL and were prepared in 70% ethanol. Coating of culture plates with compounds of formula I and controls: 96 wells culture plates were coated as described previously (11). Working standards were prepared by diluting the stock solutions in RPMI1640 to obtain the desired final concentrations. Serial three-fold dilutions (seven concentrations and one drug-free control well) of the drugs (25 μL/well) were dispensed in duplicate into standard 96-well micro culture plates. Chloroquine was included as a reference drug in all experiments.
# (§5) After reaching a parasitemia of 5% or higher, 5 mL of cell medium mixture were centrifuged at 700 g for 5 minutes at room temperature (RT). Packed red cells were resuspended in 3 mL of 5% D-sorbitol (Sigma Aldrich, Austria) in water at RT and immediately centrifuged again at 700 g for 5 minutes at RT followed by three washes with 3 mL of RPMI1640 medium. […].
# (§6) Samples were diluted with RPMI1640 medium containing 0.5% Albumax II (GIBCO, Invitrogen, Vienna, Austria) by adding uninfected red blood cells to 1.5% hematocrit and 0.05% parasitemia. 150 μL of this cell medium mixture was then added to each well of 96-well plates precoated with test compounds and incubated at 37° C. for 72 hours in a gas mixture containing 5% CO2, 5% O2, and 90% N2. After 72 hours the plates were frozen at −20° C. until the histidine rich protein II assay (23).
# (§7) A highly sensitive HRPII ELISA was used based on two commercially available monoclonal antibodies (Immunology Consultants Laboratory, Inc., Newberg, Oreg.) directed against P. falciparum-specific HRPII: MPFM-55A, an immunoglobulin M antibody served as the primary capture antibody and HRP-conjugated MPFG-55P (Immunology Consultants Laboratory, Inc., Newberg, Oreg.) as secondary antibody. The ELISA was employed to assess growth inhibition as a measure of drug susceptibility as previously described. Optical density was measured at 450 nm using a standard ELISA plate reader (12-13).
# (§8) Hyperbolic concentration response curves were fitted to the data points by nonlinear least squares using the solver add-in of the Excel software.
# (§9) Indicated in TABLE 2 are the IC50 [μM] values for growth inhibition of the 3D7 (NF54) and K1 strains of P. falciparum for the compounds of formula I indicated with their formula numbers in TABLE 2. Unmarked IC50 values for K1 and 3D7 strains of P. falciparum have been determined by HRP II enzyme linked immunosorbent assay (ELISA) as described above. […]
# [2] = test system: P. falciparum 3D7 (CQ-sensitive); test: HRP2-based ELISA growth inhibition, 3D7 strain; type: cell-based; conditions: Plasmodium falciparum, unmarked values: HRP II ELISA, 72 h
# Description: as §1, §2, §3, §4, §5, §6, §7, §8, §9
# [3] = test system: P. falciparum NF54 (CQ sensitive); test: [3H]-hypoxanthine incorporation assay, NF54 strain; type: cell-based; conditions: Plasmodium falciparum, values marked with asterisk: [3H]-hypoxanthine assay, read-out: IC50 growth inhibition NF54*
# [4] = test system: P. falciparum K1 (CQ-resistant); test: [3H]-hypoxanthine incorporation assay, K1 strain; type: cell-based; conditions: Plasmodium falciparum, values marked with asterisk: [3H]-hypoxanthine assay, read-out: IC50 growth inhibition K1 (*)
# [5] = test system: P. berghei, ANKA strain, GFP MRA-865; test: P. berghei rodent malaria 4-day suppressive test; type: in vivo, Plasmodium berghei; conditions: NMRI mice, 30 mg/kg 4x i.p.; for % activity (percent reduction of parasitemia) / % of control: day 4; for avg.Day 4 (parasitemia): day 4 (96 h post-infection); for % of control: control group taken as 100%
# Procedure: Primary biological assessment of in vivo antimalarial efficacy of the compounds of the present invention was assessed using the P. berghei rodent malaria 4-day suppressive test as recently described (14) (parasite: P. berghei, ANKA strain, GFP MRA-865; mice: NMRI mice, SPF, females, 25±2 g. free from Eperythrozoon coccoides and Haemobartonella muris). The experimental groups were treated with a single dose of compounds of the present invention (30 mg/kg) by the i.p. route. The compounds were prepared at an appropriate concentration, as a solution or suspension containing 7% Tween80/3% ethanol. Day 1 to 3 (24 h, 48 h and 72 h post-infection), the experimental groups of mice were treated again with the same dose and by the same route as on day 0. Day 4 (24 h after the last treatment, i.e. 96 h post-infection), blood smears from all animals are prepared and stained with Giemsa. Parasitemia was determined as described elsewhere (14). The difference between the mean value of the control group (taken as 100%) and those of the experimental groups was calculated and expressed as percent reduction (=activity).
# Indicated in TABLE 3 below are the percent reduction values for growth inhibition of the Plasmodium berghei parasite for the compounds of formula I indicated with their formula numbers of TABLE 2. Correlation of the formula numbers and chemical structures are set out in TABLE 1 of the example part.
# [6] = test system: chloroquine (CQ) sensitive (3D7) strain of P. falciparum; test: antimalarial activity against 3D7 compared to propafenone (data not shown); type: cell-based
Structure (SMILES),IC50 [1] [nM],IC50 [2] [nM],also measured
"O=C(NCc1ccccc1)c1ccccc1OCC(O)CN(CCCc1ccccc1)C1C2CC3CC(C2)CC1C3 (stereo not drawn) [Compound I-23, 2-{3-[Adamantan-2-yl-(3-phenyl-propyl)-amino]-2-hydroxy-propoxy}-N-benzyl-benzamide]",34,226,–
"O=C(NCc1ccccc1)c1ccccc1OCC(O)CNCC12CC3CC(CC(C3)C1)C2 (stereo not drawn) [Compound I-27, 2-{3-[(Adamantan-1-ylmethyl)-amino]-2-hydroxy-propoxy}-N-benzyl-benzamide]",50,177,–
"CC(NCC(O)COc1ccccc1C(=O)NCc1ccccc1)C12CC3CC(CC(C3)C1)C2 (stereo not drawn) [Compound I-28, 2-[3-(1-Adamantan-1-yl-ethylamino)-2-hydroxy-propoxy]-N-benzyl-benzamide]",90,309,–
"COc1ccccc1CNC(=O)c1ccccc1OCC(O)CNCC12CC3CC(CC(C3)C1)C2 (stereo not drawn) [Compound I-29, 2-{3-[(Adamantan-1-ylmethyl)-amino]-2-hydroxy-propoxy}-N-(2-methoxy-benzyl)-benzamide]",5,97,–
"O=C(Nc1ccc(F)cc1F)c1ccccc1OCC(O)CNCC12CC3CC(CC(C3)C1)C2 (stereo not drawn) [Compound I-39, 2-{3-[(Adamantan-1-ylmethyl)-amino]-2-hydroxy-propoxy}-N-(2,4-difluoro-phenyl)-benzamide]",–,–,IC50 [3]: 9 nM; IC50 [4]: 3 nM; % activity (percent reduction of parasitemia) [5]: 49.01%; avg.Day 4 (parasitemia) [5]: 30.40; % of control [5]: 50.99%
"Cc1ccc(NC(=O)c2ccccc2OCC(O)CNCC23CC4CC(CC(C4)C2)C3)cc1 (stereo not drawn) [Compound I-40, 2-{3-[(Adamantan-1-ylmethyl)-amino]-2-hydroxy-propoxy}-N-p-tolyl-benzamide]",–,–,IC50 [3]: 6 nM; IC50 [4]: 2 nM; % activity (percent reduction of parasitemia) [5]: 58.24%; avg.Day 4 (parasitemia) [5]: 24.90; % of control [5]: 41.76%
"Cc1ccc(NC(=O)c2ccccc2OCC(O)CNC(C)C23CC4CC(CC(C4)C2)C3)cc1 (stereo not drawn) [Compound I-41, 2-[3-(1-Adamantan-1-yl-ethylamino)-2-hydroxy-propoxy]-N-p-tolyl-benzamide]",12,70,–
"O=C(Nc1cccc(C(F)(F)F)c1)c1ccccc1OCC(O)CNCC12CC3CC(CC(C3)C1)C2 (stereo not drawn) [Compound I-42, 2-{3-[(Adamantan-1-ylmethyl)-amino]-2-hydroxy-propoxy}-N-(3-trifluoromethyl-phenyl)-benzamide]",–,–,IC50 [3]: 2 nM; IC50 [4]: 0.5 nM; % activity (percent reduction of parasitemia) [5]: 97.76%; avg.Day 4 (parasitemia) [5]: 1.33; % of control [5]: 2.24%
"C#CCOc1ccc(OCC(O)CNCc2ccc(C3(C(F)(F)F)N=N3)cc2)c(C(=O)NCCC(C)C)c1 (stereo not drawn) [Compound I-44, 2-{2-Hydroxy-3-[4-(3-trifluoromethyl-3H-diazirin-3-yl)-benzylamino]-propoxy}-N-(3-methyl-butyl)-5-prop-2-ynyloxy-benzamide]",466,1310,–
"O=C(c1ccccc1)c1ccc(CNCC(O)COc2ccccc2C(=O)NCc2ccccc2)cc1 (stereo not drawn) [Compound I-49, 2-[3-(4-Benzoyl-benzylamino)-2-hydroxy-propoxy]-N-benzyl-benzamide]",3230,9300,–
"O=C(NCc1ccccc1)c1ccccc1OCC(O)CNCCCc1ccccc1 (stereo not drawn) [Compound I-50, N-Benzyl-2-[2-hydroxy-3-(3-phenyl-propylamino)-propoxy]-benzamide]",403,1750,–
"COc1ccc(CNC(=O)c2ccccc2OCC(O)CN2CCN(c3cccc(C)c3C)CC2)cc1 (stereo not drawn) [Compound I-51, 2-{3-[4-(2,3-Dimethyl-phenyl)-piperazin-1-yl]-2-hydroxy-propoxy}-N-(4-methoxy-benzyl)-benzamide]",134,2020,–
"O=C(NCc1ccccc1)c1ccccc1OCC(O)CNC1CCCCCCCCCCC1 (stereo not drawn) [Compound I-52, N-Benzyl-2-(3-cyclododecylamino-2-hydroxy-propoxy)-benzamide]",52,561,–
"O=C(NCc1ccccc1)c1ccccc1OCC(O)CNC1CCCCCCC1 (stereo not drawn) [Compound I-53, N-Benzyl-2-(3-cyclooctylamino-2-hydroxy-propoxy)-benzamide]",29,197,–
"CCCNCC(O)COc1ccccc1C(=O)Nc1ccc(C)cc1 (stereo not drawn) [Compound I-54, 2-(2-Hydroxy-3-propylamino-propoxy)-N-p-tolyl-benzamide]",85,276,–
"O=C(Nc1ccc(F)cc1)c1ccccc1OCC(O)CNCC12CC3CC(CC(C3)C1)C2 (stereo not drawn) [Compound I-55, 2-{3-[(Adamantan-1-ylmethyl)-amino]-2-hydroxy-propoxy}-N-(4-fluoro-phenyl)-benzamide]",–,–,IC50 [3]: 6 nM; IC50 [4]: 2 nM; % activity (percent reduction of parasitemia) [5]: 67.35%; avg.Day 4 (parasitemia) [5]: 19.47; % of control [5]: 32.65%
"O=C(NCc1ccccc1)c1ccccc1OCC(O)CNCCC12CC3CC(CC(C3)C1)C2 (stereo not drawn) [Compound I-62, 2-[3-(2-Adamantan-1-yl-ethylamino)-2-hydroxy-propoxy]-N-benzyl-benzamide]",30,704,–
"C#CCOc1cc(CN(CCC)CC(O)COc2ccccc2C(=O)NCc2ccccc2)ccc1OC (stereo not drawn) [Compound I-63, N-Benzyl-2-{2-hydroxy-3-[(4-methoxy-3-prop-2-ynyloxy-benzyl)-propyl-amino]-propoxy}-benzamide]",982,9490,–
"CN(CC(O)COc1ccccc1C(=O)NCc1ccc(C(C)(C)C)cc1)C1C2CC3CC(C2)CC1C3 (stereo not drawn) [Compound I-64, 2-[3-(Adamantan-2-yl-methyl-amino)-2-hydroxy-propoxy]-N-(4-tert-butyl-benzyl)-benzamide]",397,1480,–
CCCNCC(O)COc1ccccc1C(=O)NCc1ccccc1 (stereo not drawn) [aza-propafenone],–,–,decrease in IC50-value compared to propafenone (A) [6]: seventy-fold decrease

# Source: patent US20150141437A1, “AMIDOPHENOXYPROPANOLAMINES” (MEDIZINISCHE UNIVERSITÄT WIEN, priority 2012, published 2015)
